Measurements as given in patent US7652153B2, “Caspase inhibitors and uses thereof” (Vertex Pharmaceuticals Incorporated, priority 2004, dated 2010).

Tests used:
caspase-1 = molecular target: T1, caspase-1 (Homo sapiens, UniProt P29466); assay: Caspase-1 enzyme inhibition (Ki, method of Margolin et al.); assay type: biochemical; settings: Suc-YVAD-pNA substrate 80 μM, 37° C., pH 7.5; read-out: Ki C1
T1 sequence (P29466 120-297 limits assumed): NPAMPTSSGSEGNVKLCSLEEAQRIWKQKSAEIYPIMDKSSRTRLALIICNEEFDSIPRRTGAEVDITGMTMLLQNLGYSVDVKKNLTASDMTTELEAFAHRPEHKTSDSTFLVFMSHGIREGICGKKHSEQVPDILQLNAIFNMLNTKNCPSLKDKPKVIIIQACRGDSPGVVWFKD
T1 sequence (P29466 317-404 limits assumed): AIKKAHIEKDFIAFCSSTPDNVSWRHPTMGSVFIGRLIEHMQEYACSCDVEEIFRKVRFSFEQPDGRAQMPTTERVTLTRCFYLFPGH
Experimental: (§1) Compounds of this invention may be tested using the methods described below.
(§2) In Vitro Assays Enzyme Inhibition
(§3) Ki values for test compounds with caspase-1 and caspase-8 were obtained by the method of Margolin et al. (J. Biol. Chem., 272 pp. 7223-7228 (1997)). Other caspases may be assayed similarly (see, e.g., WO 99/47545). Assays were performed in 10 mM Tris (Sigma Corp, St Louis Mo.) pH 7.5, 1 mM Dithiothreitol (DTT, Research Organic INC, Cleveland, Ohio) and 0.1% CHAPS (Pierce, Rockford Ill.) at 37° C. For caspase-3, a solution of 8% glycerol was added to the assay buffer to improve enzyme stability. A 65 μL aliquot of the assay buffer and 5 μL aliquot of the appropriate dilutions of inhibitor in DMSO where pipetted into a 96 well plate, treated with 10 μL of caspase, then diluted in assay buffer (0.5-40 nM active protein by active site titration). A control containing DMSO but no compound was included for each determination. The plates were then incubated for 15 minutes at 37° C., before addition of the appropriate substrate (20 μL, final concentration 1-4×KM, final assay volume 100 μL) to initiate the reaction. Reaction rates were measured at 37° C. either by following the time dependant increase in absorbance at 405 nm (for the pNA substrates) or in fluorescence (Ex 390, Em 460) (for the AMC substrates). The rates obtained were plotted against inhibitor concentration and the data fit to the Morrison tight-binding equation for competitive inhibitors (Morrison, J. F., Biochem. Biophys. Acta, 185 pp. 269-286 (1969)). The substrates used for the individual assays were as follows:
Caspase-1 Suc-YVAD-pNA (Bachem, King of Prussia, Pa.) (final concentration in the assay 80 μM);

caspase-8 = caspase-8 (Homo sapiens, UniProt Q14790); assay: Caspase-8 enzyme inhibition (Ki, method of Margolin et al.); assay type: biochemical; settings: Ac-DEVD-pNA substrate 80 μM, 37° C., pH 7.5; read-out: Ki C8
Experimental: as §1, §2, §3
Caspase-8 Ac-DEVD-pNA (Bachem, King of Prussia, Pa.) (final concentration in assay 80 μM).

Chain of caspase-8 (Q14790 217-374 limits assumed, species assumed): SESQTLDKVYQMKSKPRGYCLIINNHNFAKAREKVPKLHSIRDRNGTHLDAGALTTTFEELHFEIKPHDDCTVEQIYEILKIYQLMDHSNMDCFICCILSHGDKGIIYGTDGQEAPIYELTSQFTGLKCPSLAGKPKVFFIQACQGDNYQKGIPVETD
Chain of caspase-8 (Q14790 385-479 limits assumed, species assumed): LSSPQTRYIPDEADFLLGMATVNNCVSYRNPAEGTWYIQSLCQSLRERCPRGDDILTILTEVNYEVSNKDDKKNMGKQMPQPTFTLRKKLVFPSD

Row | Structure (SMILES) | Ki (caspase-1) | Ki (caspase-8)
1 | CC(C)(C)[C@H](NC(=O)c1cccc(OC(F)(F)F)c1Cl)C(=O)N1CCC[C@H]1C(=O)N[C@H](C=O)CC(=O)O [II-32, (S,S,S)-(3S)-({1-[(2S)-(2-Chloro-3-trifluoromethoxy-benzoylamino)-3,3-dimethyl-butyryl]-pyrrolidine-(2S)-carbonyl}-amino)-4-oxo-butyric acid] | < 10 nM | < 10 nM
2 | CC(C)(C)[C@H](NC(=O)c1cccc(OC2CC2)c1Cl)C(=O)N1CCC[C@H]1C(=O)N[C@H](C=O)CC(=O)O [II-33, (S,S,S)-(3S)-({1-[(2S)-(2-Chloro-3-cyclopropyloxy-benzoylamino)-3,3-dimethyl-butyryl]-pyrrolidine-(2S)-carbonyl}-amino)-4-oxo-butyric acid] | < 10 nM | < 10 nM
3 | Cc1cccc(C(=O)N[C@H](C(=O)N2CCC[C@H]2C(=O)N[C@H](C=O)CC(=O)O)C(C)(C)C)c1Cl [II-34, (S,S,S)-(3S)-({1-[(2S)-(2-Chloro-3-methyl-benzoylamino)-3,3-dimethyl-butyryl]-pyrrolidine-(2S)-carbonyl}-amino)-4-oxo-butyric acid] | < 10 nM | < 10 nM
4 | COc1cccc(C(=O)N[C@H](C(=O)N2CCC[C@H]2C(=O)N[C@H](C=O)CC(=O)O)C(C)C)c1Cl [II-35, (S,S,S)-(3S)-({1-[(2S)-(2-chloro-3-methoxy-benzoylamino)-3-methyl-butyryl]-pyrrolidine-(2S)-carbonyl}-amino)-4-oxo-butyric acid] | < 10 nM | < 10 nM
5 | CCc1cccc(C(=O)N[C@H](C(=O)N2CCC[C@H]2C(=O)N[C@H](C=O)CC(=O)O)C(C)(C)C)c1Cl [II-36, (S,S,S)-(3S)-({1-[(2S)-(2-Chloro-3-ethyl-benzoylamino)-3,3-dimethyl-butyryl]-pyrrolidine-(2S)-carbonyl}-amino)-4-oxo-butyric acid] | < 10 nM | < 10 nM
6 | COc1ccc(C(=O)N[C@H](C(=O)N2CCC[C@H]2C(=O)N[C@H](C=O)CC(=O)O)C(C)C)c(Cl)c1 [II-37, (S,S,S)-(3S)-({1-[(2S)-(2-chloro-4-methoxy-benzoylamino)-3-methyl-butyryl]-pyrrolidine-(2S)-carbonyl}-amino)-4-oxo-butyric acid] | < 10 nM | 10 to 20 nM
7 | CC(C)(C)[C@H](NC(=O)c1cccc(OCC2CC2)c1Cl)C(=O)N1CCC[C@H]1C(=O)N[C@H](C=O)CC(=O)O [II-38, (S,S,S)-(3S)-({1-[(2S)-(2-Chloro-3-cyclopropylmethoxy-benzoylamino)-3,3-dimethyl-butyryl]-pyrrolidine-(2S)-carbonyl}-amino)-4-oxo-butyric acid] | < 10 nM | < 10 nM
8 | CC(C)(C)[C@H](NC(=O)c1cccc(O)c1Cl)C(=O)N1CCC[C@H]1C(=O)N[C@H](C=O)CC(=O)O [II-39, (S,S,S)-(3S)-({1-[(2S)-(2-Chloro-3-hydroxy-benzoylamino)-3,3-dimethyl-butyryl]-pyrrolidine-(2S)-carbonyl}-amino)-4-oxo-butyric acid] | < 10 nM | < 10 nM
9 | CC(=O)Nc1ccc(C(=O)N[C@H](C(=O)N2CCC[C@H]2C(=O)N[C@H](C=O)CC(=O)O)C(C)C)c(Cl)c1 [II-40, (S,S,S)-(3S)-({1-[(2S)-(2-chloro-4-acetamido-benzoylamino)-3-methyl-butyryl]-pyrrolidine-(2S)-carbonyl}-amino)-4-oxo-butyric acid] | < 10 nM | 10 to 20 nM
10 | CC(=O)Nc1cccc(C(=O)N[C@H](C(=O)N2CCC[C@H]2C(=O)N[C@H](C=O)CC(=O)O)C(C)(C)C)c1Cl [II-41, (S,S,S)-(3S)-({1-[(2S)-(2-Chloro-3-acetamido-benzoylamino)-3,3-dimethyl-butyryl]-pyrrolidine-(2S)-carbonyl}-amino)-4-oxo-butyric acid] | < 10 nM | < 10 nM
11 | CC(=O)Nc1cccc(C(=O)N[C@H](C(=O)N2CCC[C@H]2C(=O)N[C@H](C=O)CC(=O)O)C(C)(C)C)c1C [II-42, (S,S,S)-(3S)-({1-[(2S)-(2-methyl-3-acetamido-benzoylamino)-3,3-dimethyl-butyryl]-pyrrolidine-(2S)-carbonyl}-amino)-4-oxo-butyric acid] | < 10 nM | 10 to 20 nM
12 | CC(=O)Nc1ccc(C(=O)N[C@H](C(=O)N2CCC[C@H]2C(=O)N[C@H](C=O)CC(=O)O)C(C)(C)C)c(Cl)c1 [II-43, (S,S,S)-(3S)-({1-[(2S)-(2-chloro-4-acetamido-benzoylamino)-3,3-dimethyl-butyryl]-pyrrolidine-(2S)-carbonyl}-amino)-4-oxo-butyric acid] | < 10 nM | < 10 nM
13 | CC(=O)Nc1ccc(C(=O)N[C@H](C(=O)N2CCC[C@H]2C(=O)N[C@H](C=O)CC(=O)O)C(C)(C)C)c(F)c1 [II-44, (S,S,S)-(3S)-({1-[(2S)-(2-fluoro-4-acetamido-benzoylamino)-3,3-dimethyl-butyryl]-pyrrolidine-(2S)-carbonyl}-amino)-4-oxo-butyric acid] | < 10 nM | < 10 nM
14 | CC(=O)Nc1ccc(C(=O)N[C@H](C(=O)N2CCC[C@H]2C(=O)N[C@H](C=O)CC(=O)O)C(C)C)c(F)c1 [II-45, (S,S,S)-(3S)-({1-[(2S)-(2-fluoro-4-acetamido-benzoylamino)-3-methyl-butyryl]-pyrrolidine-(2S)-carbonyl}-amino)-4-oxo-butyric acid] | < 10 nM | < 10 nM
15 | CC(C)Oc1ccc(C(=O)N[C@H](C(=O)N2CCC[C@H]2C(=O)N[C@H](C=O)CC(=O)O)C(C)C)c(Cl)c1 [II-46, (S,S,S)-(3S)-({1-[(2S)-(2-chloro-4-isopropyloxy-benzoylamino)-3-methyl-butyryl]-pyrrolidine-(2S)-carbonyl}-amino)-4-oxo-butyric acid] | < 10 nM | 21 to 30 nM
16 | CC(C)(C)[C@H](NC(=O)c1ccc(O)cc1Cl)C(=O)N1CCC[C@H]1C(=O)N[C@H](C=O)CC(=O)O [II-47, (S,S,S)-(3S)-({1-[(2S)-(2-chloro-4-hydroxy-benzoylamino)-3,3-dimethyl-butyryl]-pyrrolidine-(2S)-carbonyl}-amino)-4-oxo-butyric acid] | < 10 nM | < 10 nM
17 | COCc1ccc(C(=O)N[C@H](C(=O)N2CCC[C@H]2C(=O)N[C@H](C=O)CC(=O)O)C(C)(C)C)c(Cl)c1 [II-48, (S,S,S)-(3S)-({1-[(2S)-(2-chloro-4-methoxymethyl-benzoylamino)-3,3-dimethyl-butyryl]-pyrrolidine-(2S)-carbonyl}-amino)-4-oxo-butyric acid] | < 10 nM | < 10 nM
18 | CC(C)C(=O)Nc1ccc(C(=O)N[C@H](C(=O)N2CCC[C@H]2C(=O)N[C@H](C=O)CC(=O)O)C(C)(C)C)c(Cl)c1 [II-49, (S,S,S)-(3S)-({1-[(2S)-(2-chloro-4-isobutyrylamido-benzoylamino)-3,3-dimethyl-butyryl]-pyrrolidine-(2S)-carbonyl}-amino)-4-oxo-butyric acid] | < 10 nM | < 10 nM
19 | CC(=O)Nc1ccc(C(=O)N[C@H](C(=O)N2CCC[C@H]2C(=O)N[C@H](C=O)CC(=O)O)C2CCCCC2)c(Cl)c1 [II-50, (S,S,S)-(3S)-({1-[(2S)-(2-chloro-4-acetamido-benzoylamino)-3-cyclohexyl]-pyrrolidine-(2S)-carbonyl}-amino)-4-oxo-butyric acid] | < 10 nM | 21 to 30 nM
20 | COC(=O)Nc1ccc(C(=O)N[C@H](C(=O)N2CCC[C@H]2C(=O)N[C@H](C=O)CC(=O)O)C(C)(C)C)c(Cl)c1 [II-51, (S,S,S)-(3S)-({1-[(2S)-(2-chloro-4-methoxycarbonylamino-benzoylamino)-3,3-dimethyl-butyryl]-pyrrolidine-(2S)-carbonyl}-amino)-4-oxo-butyric acid] | < 10 nM | < 10 nM
21 | CC(C)(C)[C@H](NC(=O)c1cccc(Oc2ccccc2)c1Cl)C(=O)N1CCC[C@H]1C(=O)N[C@H](C=O)CC(=O)O [II-52, (S,S,S)-(3S)-({1-[(2S)-(2-chloro-3-phenoxy-benzoylamino)-3,3-dimethyl-butyryl]-pyrrolidine-(2S)-carbonyl}-amino)-4-oxo-butyric acid] | < 10 nM | < 10 nM
22 | CC(C)[C@H](NC(=O)c1c(N)cccc1Cl)C(=O)N1CCC[C@H]1C(=O)N[C@H](C=O)CC(=O)O [II-53, (S,S,S)-(3S)-({1-[(2S)-(2-chloro-6-amino-benzoylamino)-3-methyl-butyryl]-pyrrolidine-(2S)-carbonyl}-amino)-4-oxo-butyric acid] | < 10 nM | 21 to 30 nM
